From patent publication US11142524B2, “Substituted-3H-imidazo[4,5-c]pyridine and 1H-pyrrolo[2,3-c]pyridine series of novel Ectonucleotide Pyrophosphatase/Phosphodiesterase-1 (ENPP1) and stimulator for interferon genes (STING) modulators as cancer immunotherapeutics” (Stingray Therapeutics, Inc., priority 2018, dated 2021)
Like-named read-outs stand apart in the source and are kept apart here.

Tests used:
[1] = target: Recombinant Human ENPP-1 Protein (purified in-house) (Homo sapiens (Human), UniProt P22413); assay: ENPP1 Assay (ATP), Example 2; format: biochemical
Procedure: Assay Buffer: 1 mM CaCl2, 0.2 mM ZnCl2, 50 mM Tris, pH 9.0. Substrate: 100 μM Adenosine 5′-triphosphate disodium salt hydrate (Promega: V703A)—Assay Conc.: 10 μM. Enzyme: 1 ng/μL Recombinant Human ENPP-1 Protein (purified in-house)—Assay Conc.: 5 ng/well of DMSO in 96-well white assay plates. Cell Titer Glo (Promega, cat #G7572).
A ten point serial dilution of drugs was prepared in 10× in assay buffer with the final assay concentrations starting at 10 μM, 3 μM, 1 μM, 0.3 μM . . . 0 μM. A dilution of DMSO was included as a control. The assay plate was set up as follows with each well in duplicate: 75 μL assay buffer+10 μL ENPP1 inhibitor or DMSO Dilutions+10 μL Substrate+5 μL Enzyme (5 ng). Both the enzyme and substrate were added to opposite sides of the well to ensure that there was no interaction until all wells had both components. The plate was then centrifuged gently for 10 seconds, followed by incubation at RT for 20 minutes. To detect levels of ATP, Cell Titer Glo was added 1:1 to each well and incubated for 10 minutes. The reaction was quantified by measuring luminescence using the Envision Plate Reader.

Saos-2 Cells = assay: ENPP1 Mineralization Assay; format: cell-based; conditions: FIG. 9, mineralization components for 3 days
[2] = target: Recombinant Human ENPP-2/Autotaxin Protein (Homo sapiens (Human), UniProt Q13822); assay: ENPP2 Inhibition Assay; format: biochemical
Procedure: Assay Buffer: 10 mM CaCl2, 5 mM MgCl2, 50 mM Tris, 0.02% Brij-35, pH 8.5. Substrate: 2 mM Bis(p-Nitrophenyl) Phosphate Sodium Salt (Sigma Cat # N3002). Enzyme: 0.2 ng/μL Recombinant Human ENPP-2/Autotaxin Protein (R&D Cat #5255-EN), PF-3080 in DMSO in 96-well clear assay plates
An eight point serial dilution of drugs was prepared in 10× in assay buffer with the final assay concentrations starting at 10 μM, 3 μM, 1 μM, 0.3 μM . . . 0 μM. A dilution of DMSO was included as a control. The assay plate was set up as follows with each well in duplicate: 15 μL assay buffer+10 μL ENPP1 inhibitor or DMSO+50 μL Substrate+25 μL Enzyme. Both the enzyme and substrate were added to opposite sides of the well to ensure that there was no interaction until all wells had both components. The plate was then centrifuged gently for 10 seconds, followed by an incubation at 37° C. for 45 minutes. The reaction was quantified by measuring absorbance at 405 nm using the Envision.
IC50 values are determined using GraphPad Prism 5 software. The data were entered as an X-Y plot into the software as percent inhibition for each concentration of the drug. The concentration values of the drug were log transformed and the nonlinear regression was carried out using the “sigmoidal dose-response (variable slope)” option within the GraphPad software to model the data and calculate IC50 values. The IC50 values reported are the concentration of drug at which 50% inhibition was reached.

Recombinant Human ENPP-1 Protein (purified in-house), sequence (P22413 whole entry, looked up): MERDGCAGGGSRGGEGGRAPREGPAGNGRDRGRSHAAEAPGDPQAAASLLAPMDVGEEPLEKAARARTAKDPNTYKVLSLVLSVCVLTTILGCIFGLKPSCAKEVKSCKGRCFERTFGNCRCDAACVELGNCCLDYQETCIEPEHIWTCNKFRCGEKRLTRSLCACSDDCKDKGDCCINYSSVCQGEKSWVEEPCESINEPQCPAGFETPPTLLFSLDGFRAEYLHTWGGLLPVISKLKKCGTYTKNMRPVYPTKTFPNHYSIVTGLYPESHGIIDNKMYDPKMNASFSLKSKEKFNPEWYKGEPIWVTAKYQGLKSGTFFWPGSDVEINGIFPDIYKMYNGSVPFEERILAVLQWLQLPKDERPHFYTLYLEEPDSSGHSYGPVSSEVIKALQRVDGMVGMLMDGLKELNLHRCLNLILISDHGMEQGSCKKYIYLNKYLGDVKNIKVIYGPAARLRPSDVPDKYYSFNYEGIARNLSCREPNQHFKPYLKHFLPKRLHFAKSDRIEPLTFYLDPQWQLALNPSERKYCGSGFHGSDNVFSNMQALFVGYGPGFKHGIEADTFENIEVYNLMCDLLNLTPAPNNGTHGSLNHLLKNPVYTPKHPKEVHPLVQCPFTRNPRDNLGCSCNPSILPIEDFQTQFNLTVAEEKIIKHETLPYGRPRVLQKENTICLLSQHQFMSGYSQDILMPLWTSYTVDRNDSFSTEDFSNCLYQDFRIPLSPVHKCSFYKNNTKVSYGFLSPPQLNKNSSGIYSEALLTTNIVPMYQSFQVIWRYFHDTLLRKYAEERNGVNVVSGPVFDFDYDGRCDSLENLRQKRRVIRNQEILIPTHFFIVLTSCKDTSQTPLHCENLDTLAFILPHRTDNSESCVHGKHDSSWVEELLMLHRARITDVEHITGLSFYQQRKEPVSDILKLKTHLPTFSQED

IC50 ([1]; FIG. 5B, ATP substrate, read-out: IC50): 0.0731 µM | IC50 ([1]; Table 5, ATP substrate, read-out: ENPP1 (IC50 μM) ATP): 0.116 µM | selective at inhibiting ENPP1 but not ENPP2 [2]: selective | inhibiting the activity of ENPP2 ([2]; FIGS. 2A and 2B): ineffective
SMILES: COc1ccc(NC(=O)CSc2nc3c(C)c(C#N)ncc3[nH]2)cc1O [Compound 78, 2-((6-Cyano-7-methyl-3H-imidazo[4,5-c]pyridin-2-yl)thio)-N-(3-hydroxy-4-methoxyphenyl) acetamide]
total mineralization (Saos-2 Cells): significant decrease
